Measurements as given in patent EP2481744A1, “Aromatic bis-phosphoramidate additives as flame retardants for polymers” (EMPA Eidgenössische Materialprüfungs- und Forschungsanstalt, priority 2011, dated 2012).
Values after ≈ are worked out from the molar mass of the structure shown. Read-outs that look alike come from different tables or passages of the source.

What was measured:
[1] = deionized water, 16 h
[2] = Solubility in deionized water (shaking flask, phosphorus content by ICP-OES); details: 0.5 gm in 50 ml deionized water, 21 °C, 16 hrs

| SMILES | Solubility [1] | Solubility [2] |
| --- | --- | --- |
| CCOP(=O)(Nc1ccc(NP(=O)(OCC)OCC)cc1)OCC [p-PAPTEE, Phosphoramidic acid, 1,4-phenylenebis-, tetraethyl ester] | 47 µg/mL (≈ 124 µM) | – |
| CC(C)OP(=O)(Nc1ccc(NP(=O)(OC(C)C)OC(C)C)cc1)OC(C)C [p-PAPTiPE, Phosphoramidic acid, 1,4-phenylenebis-, tetra isopropyl ester] | – | 56 µg/mL (≈ 128 µM) |
